Measured values published in the supplement of paper PMC10307832.

Experiments:
Assay in all cases: relative viability (nuclei count vs DMSO), 5 days (fraction); higher = more cells survive
[1] = system: NCI-H2405
Summary of the method: (§1)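 The day after seeding in 1536-well plates, lung cancer cell lines were treated by pin tool with a single drug, or with a fixed anchor-drug dose together with five library-drug doses (not always all listed) in √10 steps. After 5 days, a combined fix-and-stain solution (final 0.05% Triton X-100, 1% formaldehyde, 1 ug/ml Hoechst) was added. Nuclei counted on 4× images gave relative viability as treated counts over vehicle counts, reported as the median of duplicate plates.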

[2] = system: NCI-H1650
Summary of the method: as §1

[3] = system: NCI-H441
Summary of the method: as §1

[4] = system: H3255
Summary of the method: as §1

[5] = system: HCC-827
Summary of the method: as §1

[6] = system: LXF-289
Summary of the method: as §1

[7] = system: UMC-11
Summary of the method: as §1

[8] = system: LK-2
Summary of the method: as §1

[9] = system: NCI-H1993
Summary of the method: as §1

[10] = system: LCLC-97TM1
Summary of the method: as §1

[11] = system: EPLC-272H
Summary of the method: as §1

[12] = system: LU99A
Summary of the method: as §1

[13] = system: SW 1573
Summary of the method: as §1

[14] = system: ChaGo-K-1
Summary of the method: as §1

[15] = system: NCI-H1355
Summary of the method: as §1

[16] = system: NCI-H3122
Summary of the method: as §1

[17] = system: EKVX
Summary of the method: as §1

[18] = system: NCI-H2228
Summary of the method: as §1

[19] = system: NCI-H2170
Summary of the method: as §1

[20] = system: SK-LU-1
Summary of the method: as §1

[21] = system: HOP-62
Summary of the method: as §1

[22] = system: PC-3 [JPC-3]
Summary of the method: as §1

Q: For `Cc1csc(=NC2CCCCC2)n1/N=C/c1ccc(O)c(O)c1O` [MIM1] + C[C@@H](Oc1cc(-c2cnn(C3CCNCC3)c2)cnc1N)c1c(Cl)ccc(F)c1Cl [Crizotinib] (partner 1 µM), which relative viability ([1]; first compound 0.2 µM) is on record?
A: 0.883

Q: What about the relative viability ([1]; first compound 0.6325 µM) of the same compound?
A: 0.864

Q: What about the relative viability ([1]; first compound 2 µM) of the same compound?
A: 0.912

Q: And the relative viability ([1]; first compound 6.325 µM)?
A: 0.701

Q: What about the relative viability ([1]; first compound 20 µM) of the same compound?
A: 0.508

Q: And the relative viability ([2]; first compound 0.2 µM)?
A: 1.04

Q: And the relative viability ([2]; first compound 0.6325 µM)?
A: 0.931

Q: And the relative viability ([2]; first compound 2 µM)?
A: 0.495

Q: What about the relative viability ([2]; first compound 6.325 µM) of the same compound?
A: 0.47

Q: What about the relative viability ([2]; first compound 20 µM) of the same compound?
A: 0.156

Q: What about the relative viability ([3]; first compound 0.2 µM) of the same compound?
A: 0.835

Q: What about the relative viability ([3]; first compound 0.6325 µM) of the same compound?
A: 0.692

Q: What about the relative viability ([3]; first compound 2 µM) of the same compound?
A: 0.774

Q: And the relative viability ([3]; first compound 6.325 µM)?
A: 0.433

Q: And the relative viability ([3]; first compound 20 µM)?
A: 0.222

Q: And the relative viability ([4]; first compound 0.2 µM)?
A: 0.911

Q: And the relative viability ([4]; first compound 0.6325 µM)?
A: 0.847

Q: And the relative viability ([4]; first compound 2 µM)?
A: 0.774

Q: What about the relative viability ([4]; first compound 6.325 µM) of the same compound?
A: 0.629

Q: And the relative viability ([4]; first compound 20 µM)?
A: 0.435

Q: What about the relative viability ([5]; first compound 0.2 µM) of the same compound?
A: 0.971

Q: And the relative viability ([5]; first compound 0.6325 µM)?
A: 0.919

Q: And the relative viability ([5]; first compound 2 µM)?
A: 0.927

Q: What about the relative viability ([5]; first compound 6.325 µM) of the same compound?
A: 0.307

Q: What about the relative viability ([5]; first compound 20 µM) of the same compound?
A: 0.366

Q: What about the relative viability ([6]; first compound 0.2 µM) of the same compound?
A: 0.806

Q: What about the relative viability ([6]; first compound 0.6325 µM) of the same compound?
A: 0.732

Q: What about the relative viability ([6]; first compound 2 µM) of the same compound?
A: 0.833

Q: What about the relative viability ([6]; first compound 6.325 µM) of the same compound?
A: 0.655

Q: What about the relative viability ([6]; first compound 20 µM) of the same compound?
A: 0.388

Q: And the relative viability ([7]; first compound 0.2 µM)?
A: 0.544

Q: What about the relative viability ([7]; first compound 0.6325 µM) of the same compound?
A: 0.565

Q: What about the relative viability ([7]; first compound 2 µM) of the same compound?
A: 0.649

Q: What about the relative viability ([7]; first compound 6.325 µM) of the same compound?
A: 0.349

Q: And the relative viability ([7]; first compound 20 µM)?
A: 0.184

Q: And the relative viability ([8]; first compound 0.2 µM)?
A: 0.234

Q: What about the relative viability ([8]; first compound 0.6325 µM) of the same compound?
A: 0.233

Q: What about the relative viability ([8]; first compound 6.325 µM) of the same compound?
A: 0.227

Q: And the relative viability ([8]; first compound 20 µM)?
A: 0.229

Q: And the relative viability ([9]; first compound 0.2 µM)?
A: 0.886

Q: What about the relative viability ([9]; first compound 0.6325 µM) of the same compound?
A: 0.805

Q: What about the relative viability ([9]; first compound 2 µM) of the same compound?
A: 0.827

Q: And the relative viability ([9]; first compound 6.325 µM)?
A: 0.608

Q: What about the relative viability ([9]; first compound 20 µM) of the same compound?
A: 0.594

Q: What about the relative viability ([10]; first compound 0.2 µM) of the same compound?
A: 0.327

Q: And the relative viability ([10]; first compound 0.6325 µM)?
A: 0.38

Q: And the relative viability ([10]; first compound 2 µM)?
A: 0.441

Q: What about the relative viability ([10]; first compound 6.325 µM) of the same compound?
A: 0.214

Q: What about the relative viability ([10]; first compound 20 µM) of the same compound?
A: 0.12

Q: What about the relative viability ([11]; first compound 0.2 µM) of the same compound?
A: 0.911

Q: What about the relative viability ([11]; first compound 0.6325 µM) of the same compound?
A: 0.925

Q: What about the relative viability ([11]; first compound 2 µM) of the same compound?
A: 0.901

Q: And the relative viability ([11]; first compound 6.325 µM)?
A: 0.666

Q: What about the relative viability ([11]; first compound 20 µM) of the same compound?
A: 0.278

Q: What about the relative viability ([12]; first compound 0.2 µM) of the same compound?
A: 0.56

Q: And the relative viability ([12]; first compound 0.6325 µM)?
A: 0.538

Q: And the relative viability ([12]; first compound 2 µM)?
A: 0.474

Q: And the relative viability ([12]; first compound 6.325 µM)?
A: 0.481

Q: And the relative viability ([12]; first compound 20 µM)?
A: 0.29

Q: And the relative viability ([13]; first compound 0.2 µM)?
A: 0.8

Q: And the relative viability ([13]; first compound 0.6325 µM)?
A: 0.847

Q: And the relative viability ([13]; first compound 2 µM)?
A: 0.875

Q: What about the relative viability ([13]; first compound 6.325 µM) of the same compound?
A: 0.661

Q: And the relative viability ([13]; first compound 20 µM)?
A: 0.451

Q: And the relative viability ([14]; first compound 0.2 µM)?
A: 1.07

Q: What about the relative viability ([14]; first compound 0.6325 µM) of the same compound?
A: 1.13

Q: What about the relative viability ([14]; first compound 2 µM) of the same compound?
A: 0.953

Q: And the relative viability ([14]; first compound 6.325 µM)?
A: 0.835

Q: What about the relative viability ([14]; first compound 20 µM) of the same compound?
A: 0.285

Q: And the relative viability ([15]; first compound 0.2 µM)?
A: 1.04

Q: What about the relative viability ([15]; first compound 0.6325 µM) of the same compound?
A: 1.16

Q: And the relative viability ([15]; first compound 2 µM)?
A: 1

Q: What about the relative viability ([15]; first compound 6.325 µM) of the same compound?
A: 0.94

Q: And the relative viability ([15]; first compound 20 µM)?
A: 0.516

Q: And the relative viability ([16]; first compound 0.2 µM)?
A: 0.272

Q: And the relative viability ([16]; first compound 0.6325 µM)?
A: 0.251

Q: What about the relative viability ([16]; first compound 2 µM) of the same compound?
A: 0.32

Q: What about the relative viability ([16]; first compound 6.325 µM) of the same compound?
A: 0.294

Q: What about the relative viability ([16]; first compound 20 µM) of the same compound?
A: 0.204

Q: And the relative viability ([17]; first compound 0.2 µM)?
A: 0.989

Q: What about the relative viability ([17]; first compound 0.6325 µM) of the same compound?
A: 0.887

Q: What about the relative viability ([17]; first compound 2 µM) of the same compound?
A: 0.788

Q: And the relative viability ([17]; first compound 6.325 µM)?
A: 0.527

Q: What about the relative viability ([17]; first compound 20 µM) of the same compound?
A: 0.757

Q: What about the relative viability ([18]; first compound 0.2 µM) of the same compound?
A: 0.453

Q: And the relative viability ([18]; first compound 0.6325 µM)?
A: 0.488

Q: What about the relative viability ([18]; first compound 2 µM) of the same compound?
A: 0.61

Q: What about the relative viability ([18]; first compound 6.325 µM) of the same compound?
A: 0.241

Q: What about the relative viability ([18]; first compound 20 µM) of the same compound?
A: 0.22

Q: What about the relative viability ([19]; first compound 0.2 µM) of the same compound?
A: 1.15

Q: What about the relative viability ([19]; first compound 0.6325 µM) of the same compound?
A: 1.07

Q: And the relative viability ([19]; first compound 2 µM)?
A: 1.13

Q: And the relative viability ([19]; first compound 6.325 µM)?
A: 0.652

Q: And the relative viability ([19]; first compound 20 µM)?
A: 0.302

Q: And the relative viability ([20]; first compound 0.2 µM)?
A: 1.02

Q: And the relative viability ([20]; first compound 0.6325 µM)?
A: 0.895

Q: And the relative viability ([20]; first compound 2 µM)?
A: 1.07

Q: What about the relative viability ([20]; first compound 6.325 µM) of the same compound?
A: 0.815

Q: And the relative viability ([20]; first compound 20 µM)?
A: 0.843

Q: And the relative viability ([21]; first compound 0.2 µM)?
A: 0.927

Q: What about the relative viability ([21]; first compound 0.6325 µM) of the same compound?
A: 0.914

Q: What about the relative viability ([21]; first compound 2 µM) of the same compound?
A: 0.642

Q: And the relative viability ([21]; first compound 6.325 µM)?
A: 0.888

Q: What about the relative viability ([21]; first compound 20 µM) of the same compound?
A: 0.0803

Q: What about the relative viability ([22]; first compound 0.2 µM) of the same compound?
A: 0.989

Q: What about the relative viability ([22]; first compound 0.6325 µM) of the same compound?
A: 1

Q: What about the relative viability ([22]; first compound 2 µM) of the same compound?
A: 1

Q: And the relative viability ([22]; first compound 6.325 µM)?
A: 0.768

Q: What about the relative viability ([22]; first compound 20 µM) of the same compound?
A: 0.451
